Measured values as given in the supplement of paper PMC13380429.

Experiments:
Details in all cases: 72 h
Caco-2 [1] = experiment: cell viability relative to DMSO; higher = less toxic
Calu-3 [2] = experiment: as above
HepG2 [3] = experiment: as above
U2OS [4] = experiment: as above
Vero E6 [5] = experiment: as above
Caco-2 [6] = experiment: relative viability EC50 (midpoint between 100% and the lowest measured viability); higher = less toxic
Calu-3 [7] = experiment: as above
HepG2 [8] = experiment: as above
U2OS [9] = experiment: as above
Vero E6 [10] = experiment: as above
Caco-2 [11] = experiment: drug sensitivity score (DSS) for viability; higher = more toxic; extreme values may be limits of the assay
Calu-3 [12] = experiment: as above
HepG2 [13] = experiment: as above
U2OS [14] = experiment: as above
Vero E6 [15] = experiment: as above

**Q.** What does the source list for `CC(=O)Nc1c(I)cc(I)c(C(=O)O)c1I` [acetriazoic-acid]?
**A.** cell viability (Caco-2 [1]; 1 nM): 91.2%; cell viability (Caco-2 [1]; 10 nM): 92%; cell viability (Caco-2 [1]; 100 nM): 96.3%; cell viability (Caco-2 [1]; 1000 nM): 97.8%; cell viability (Caco-2 [1]; 10000 nM): 102%; cell viability (Calu-3 [2]; 1 nM): 98.6%; cell viability (Calu-3 [2]; 10 nM): 95.3%; cell viability (Calu-3 [2]; 100 nM): 95.1%; cell viability (Calu-3 [2]; 1000 nM): 99.4%; cell viability (Calu-3 [2]; 10000 nM): 97.1%; cell viability (HepG2 [3]; 1 nM): 96.6%; cell viability (HepG2 [3]; 10 nM): 92.1%; cell viability (HepG2 [3]; 100 nM): 89.9%; cell viability (HepG2 [3]; 1000 nM): 95.8%; cell viability (HepG2 [3]; 10000 nM): 107%; cell viability (U2OS [4]; 1 nM): 94.2%; cell viability (U2OS [4]; 10 nM): 92.4%; cell viability (U2OS [4]; 100 nM): 98.7%; cell viability (U2OS [4]; 1000 nM): 97.2%; cell viability (U2OS [4]; 10000 nM): 98.2%; cell viability (Vero E6 [5]; 1 nM): 93.2%; cell viability (Vero E6 [5]; 10 nM): 99%; cell viability (Vero E6 [5]; 100 nM): 93.8%; cell viability (Vero E6 [5]; 1000 nM): 98.4%; cell viability (Vero E6 [5]; 10000 nM): 102%; relative viability EC50 (Caco-2 [6]): > 10 µM; relative viability EC50 (Calu-3 [7]): > 10 µM; relative viability EC50 (HepG2 [8]): > 10 µM; relative viability EC50 (U2OS [9]): > 10 µM; relative viability EC50 (Vero E6 [10]): > 10 µM; drug sensitivity score (Caco-2 [11]): 0; drug sensitivity score (Calu-3 [12]): 0; drug sensitivity score (HepG2 [13]): 0; drug sensitivity score (U2OS [14]): 0; drug sensitivity score (Vero E6 [15]): 0

**Q.** How did the cell viability (Caco-2 [1]; 1 nM) turn out when `CC1(C)S[C@@H]2[C@H](N3C(=O)[C@@H](c4ccccc4)NC3(C)C)C(=O)N2[C@H]1C(=O)O` [hetacillin] was run?
**A.** 98.3%

**Q.** And the cell viability (Caco-2 [1]; 10 nM)?
**A.** 92.7%

**Q.** What about the cell viability (Caco-2 [1]; 100 nM) of the same compound?
**A.** 96.8%

**Q.** And the cell viability (Caco-2 [1]; 1000 nM)?
**A.** 93.4%

**Q.** What about the cell viability (Caco-2 [1]; 10000 nM) of the same compound?
**A.** 86.4%

**Q.** What about the cell viability (Calu-3 [2]; 1 nM) of the same compound?
**A.** 99.4%

**Q.** And the cell viability (Calu-3 [2]; 10 nM)?
**A.** 94.3%

**Q.** And the cell viability (Calu-3 [2]; 100 nM)?
**A.** 104%

**Q.** What about the cell viability (Calu-3 [2]; 1000 nM) of the same compound?
**A.** 100%

**Q.** And the cell viability (Calu-3 [2]; 10000 nM)?
**A.** 113%

**Q.** What about the cell viability (HepG2 [3]; 1 nM) of the same compound?
**A.** 95.6%

**Q.** What about the cell viability (HepG2 [3]; 10 nM) of the same compound?
**A.** 101%

**Q.** And the cell viability (HepG2 [3]; 100 nM)?
**A.** 102%

**Q.** What about the cell viability (HepG2 [3]; 1000 nM) of the same compound?
**A.** 110%

**Q.** What about the cell viability (HepG2 [3]; 10000 nM) of the same compound?
**A.** 93.8%

**Q.** And the cell viability (U2OS [4]; 1 nM)?
**A.** 100%

**Q.** And the cell viability (U2OS [4]; 10 nM)?
**A.** 95.7%

**Q.** And the cell viability (U2OS [4]; 100 nM)?
**A.** 101%

**Q.** What about the cell viability (U2OS [4]; 1000 nM) of the same compound?
**A.** 95%

**Q.** And the cell viability (U2OS [4]; 10000 nM)?
**A.** 99.5%

**Q.** And the cell viability (Vero E6 [5]; 1 nM)?
**A.** 109%

**Q.** What about the cell viability (Vero E6 [5]; 10 nM) of the same compound?
**A.** 97.6%

**Q.** What about the cell viability (Vero E6 [5]; 100 nM) of the same compound?
**A.** 94.7%

**Q.** And the cell viability (Vero E6 [5]; 1000 nM)?
**A.** 110%

**Q.** And the cell viability (Vero E6 [5]; 10000 nM)?
**A.** 90.4%

**Q.** And the “relative viability EC50” value (Caco-2 [6])?
**A.** > 10 µM

**Q.** And the “relative viability EC50” value (Calu-3 [7])?
**A.** > 10 µM

**Q.** And the “relative viability EC50” value (HepG2 [8])?
**A.** > 10 µM

**Q.** What about the “relative viability EC50” value (U2OS [9]) of the same compound?
**A.** > 10 µM

**Q.** And the “relative viability EC50” value (Vero E6 [10])?
**A.** > 10 µM

**Q.** What about the drug sensitivity score (Caco-2 [11]) of the same compound?
**A.** 0

**Q.** And the drug sensitivity score (Calu-3 [12])?
**A.** 0

**Q.** And the drug sensitivity score (HepG2 [13])?
**A.** 0

**Q.** And the drug sensitivity score (U2OS [14])?
**A.** 0

**Q.** What about the drug sensitivity score (Vero E6 [15]) of the same compound?
**A.** 0

**Q.** With `CCC/C=C1\OC(=O)C2=C1CCC=C2` [ligustilide] as the compound, how does the cell viability (Caco-2 [1]; 1 nM) read?
**A.** 100%

**Q.** What about the cell viability (Caco-2 [1]; 10 nM) of the same compound?
**A.** 104%

**Q.** And the cell viability (Caco-2 [1]; 100 nM)?
**A.** 113%

**Q.** What about the cell viability (Caco-2 [1]; 1000 nM) of the same compound?
**A.** 122%

**Q.** What about the cell viability (Caco-2 [1]; 10000 nM) of the same compound?
**A.** 83.6%

**Q.** And the cell viability (Calu-3 [2]; 1 nM)?
**A.** 100%

**Q.** What about the cell viability (Calu-3 [2]; 10 nM) of the same compound?
**A.** 88.8%

**Q.** And the cell viability (Calu-3 [2]; 100 nM)?
**A.** 103%

**Q.** And the cell viability (Calu-3 [2]; 1000 nM)?
**A.** 101%

**Q.** What about the cell viability (Calu-3 [2]; 10000 nM) of the same compound?
**A.** 106%

**Q.** And the cell viability (HepG2 [3]; 1 nM)?
**A.** 106%

**Q.** And the cell viability (HepG2 [3]; 10 nM)?
**A.** 106%

**Q.** What about the cell viability (HepG2 [3]; 100 nM) of the same compound?
**A.** 111%

**Q.** What about the cell viability (HepG2 [3]; 1000 nM) of the same compound?
**A.** 94.6%

**Q.** What about the cell viability (HepG2 [3]; 10000 nM) of the same compound?
**A.** 110%

**Q.** What about the cell viability (U2OS [4]; 1 nM) of the same compound?
**A.** 96.2%

**Q.** What about the cell viability (U2OS [4]; 10 nM) of the same compound?
**A.** 101%

**Q.** What about the cell viability (U2OS [4]; 100 nM) of the same compound?
**A.** 101%

**Q.** What about the cell viability (U2OS [4]; 1000 nM) of the same compound?
**A.** 95.4%

**Q.** And the cell viability (U2OS [4]; 10000 nM)?
**A.** 94.7%

**Q.** And the cell viability (Vero E6 [5]; 1 nM)?
**A.** 93.8%

**Q.** And the cell viability (Vero E6 [5]; 10 nM)?
**A.** 101%

**Q.** What about the cell viability (Vero E6 [5]; 100 nM) of the same compound?
**A.** 102%

**Q.** What about the cell viability (Vero E6 [5]; 1000 nM) of the same compound?
**A.** 100%

**Q.** What about the cell viability (Vero E6 [5]; 10000 nM) of the same compound?
**A.** 106%

**Q.** And the “relative viability EC50” value (Caco-2 [6])?
**A.** > 10 µM

**Q.** What about the “relative viability EC50” value (Calu-3 [7]) of the same compound?
**A.** > 10 µM

**Q.** What about the “relative viability EC50” value (HepG2 [8]) of the same compound?
**A.** > 10 µM

**Q.** What about the “relative viability EC50” value (U2OS [9]) of the same compound?
**A.** > 10 µM

**Q.** And the “relative viability EC50” value (Vero E6 [10])?
**A.** > 10 µM

**Q.** And the drug sensitivity score (Caco-2 [11])?
**A.** 0.1

**Q.** And the drug sensitivity score (Calu-3 [12])?
**A.** 0

**Q.** And the drug sensitivity score (HepG2 [13])?
**A.** 0

**Q.** What about the drug sensitivity score (U2OS [14]) of the same compound?
**A.** 0

**Q.** What about the drug sensitivity score (Vero E6 [15]) of the same compound?
**A.** 0
